Experimental data: patent US20040034045A1, “Inhibitors of thrombin induced platelet aggregation” (Parker Hughes Institute, priority 2000, published 2004)
One block for each compound: values may come before it.

What was measured:
JAK3 = target: T1, JAK3 (Homo sapiens, UniProt P52333); assay: JAK3 inhibition (statement, no method)
T1 sequence (P52333 1-1124): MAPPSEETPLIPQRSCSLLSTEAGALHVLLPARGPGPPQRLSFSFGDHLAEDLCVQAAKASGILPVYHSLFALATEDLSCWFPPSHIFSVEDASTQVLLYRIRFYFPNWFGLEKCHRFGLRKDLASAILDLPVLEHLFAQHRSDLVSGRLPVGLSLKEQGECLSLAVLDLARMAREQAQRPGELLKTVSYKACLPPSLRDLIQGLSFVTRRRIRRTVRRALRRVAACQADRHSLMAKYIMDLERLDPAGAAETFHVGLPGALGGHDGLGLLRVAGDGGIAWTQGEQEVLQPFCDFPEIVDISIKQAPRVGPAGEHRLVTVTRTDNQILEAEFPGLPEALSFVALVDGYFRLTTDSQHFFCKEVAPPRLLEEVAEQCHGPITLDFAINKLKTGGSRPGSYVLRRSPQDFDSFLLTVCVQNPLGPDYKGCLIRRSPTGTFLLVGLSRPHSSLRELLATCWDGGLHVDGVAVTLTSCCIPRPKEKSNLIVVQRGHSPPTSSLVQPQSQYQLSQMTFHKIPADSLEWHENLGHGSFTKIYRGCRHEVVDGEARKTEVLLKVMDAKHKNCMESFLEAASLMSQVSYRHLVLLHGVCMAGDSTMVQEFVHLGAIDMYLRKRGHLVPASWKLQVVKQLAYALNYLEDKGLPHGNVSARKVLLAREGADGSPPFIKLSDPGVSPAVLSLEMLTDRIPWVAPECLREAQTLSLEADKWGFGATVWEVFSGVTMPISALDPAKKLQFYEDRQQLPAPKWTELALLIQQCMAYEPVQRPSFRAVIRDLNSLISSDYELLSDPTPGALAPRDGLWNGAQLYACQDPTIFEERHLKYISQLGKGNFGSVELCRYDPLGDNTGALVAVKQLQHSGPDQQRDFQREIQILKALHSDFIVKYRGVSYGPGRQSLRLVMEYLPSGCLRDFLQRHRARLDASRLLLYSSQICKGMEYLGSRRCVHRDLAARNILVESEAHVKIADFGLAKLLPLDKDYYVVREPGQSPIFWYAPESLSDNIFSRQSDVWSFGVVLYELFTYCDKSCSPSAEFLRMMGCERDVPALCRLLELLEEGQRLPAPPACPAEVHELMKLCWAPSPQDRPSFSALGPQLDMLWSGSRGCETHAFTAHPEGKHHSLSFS

[1] = test system: thrombin-induced platelet aggregation; assay: Thrombin-induced platelet aggregation (platelet aggregometer); format: cell-based, human
Procedure: Platelet-rich plasma (PRP) was purchased from the Memorial Blood Bank (Minneapolis, Minn.) and used according to the guidelines of the Parker Hughes Institute Human Subjects Committee. The PRP samples were treated with varying concentrations of WHI-P131 for 20 minutes at 37° C. Control PRP samples were treated with vehicle alone. The treated PRP samples were diluted 1:4 with sterile normal saline and platelets were stimulated with thrombin (0.1 U/mL, Chronolog Inc., Philadelphia, Pa.) under stirred conditions. Platelet aggregation was monitored in a platelet aggregometer (Model 560 Dual Chamber Instrument, Chronolog Inc., Philadelphia, Pa.) for 5 minutes. The IC50 values for WHI-P131-mediated inhibition of agonist-induced platelet aggregation were calculated by non-linear regression analysis using Graphpad Prism software version 2.0 (Graphpad Software, Inc., San Diego, Calif.).

platelets = assay: Serotonin release from thrombin-stimulated platelets; format: cell-based, human; conditions: treated, N=4
Procedure: Release of serotonin from thrombin (0.1 U/mL)-stimulated platelets was measured using a serotonin detection kit (Immunotech, Marseille, France) according to the manufacturer's specifications. Sonnicated platelets were used for measurement of the total serotonin content of platelets.

monkeys = assay: Systemic toxicity in monkeys; format: in vivo; conditions: dose levels 1 mg/kg to 100 mg/kg
[2] = Plasma concentration in mice; format: in vivo
[3] = test system: thromboplastin-induced thromboembolism; assay: Thromboplastin-induced thromboembolism model; format: in vivo
Procedure: Mice (4-6 week old males, International Cancer Research (IRC)) were treated […] with 200 μL of vehicle (PBS supplemented with 10% DMSO), varying doses of WH-P131 in 200 μL of vehicle (administered intraperitoneally (i.p.) 30 minutes prior to the thromboplastin challenge). The mice were challenged with 25 mg/kg thromboplastin (Sigma, St. Louis, Mo.) via a bolus intravenous injection into the tail vein as previously described (Sato, et.al., 1998 Jpn J. Pharmacol 78(2), 191-7).
At the time of thromboembolism-related death after the thromboplastin injection or elective sacrifice at 48 hours using ketamine/xylazine, all mice were perfused with PBS followed by 4% phosphate buffered formalin. PBS and formalin were pumped through the left ventricle of the heart and allowed to exit through a 3 mm incision through the anterior wall of the right ventricle. During necropsy, several selected tissues (brain, heart, liver, lungs) were harvested, fixed in 10% neutral buffered formalin, dehydrated, and embedded in paraffin by routine methods for histopathologic examination. Glass slides with affixed 6 micron tissue sections were prepared and stained with hemotoxylin and eosin (H&E) or Masson's trichrome.

mice [4] = assay: Tail bleeding time in mice; format: in vivo
Procedure: Mice (4-6 week old males, International Cancer Research (IRC)) were treated intravenously with 200 μL vehicle (PBS supplemented with 10% DMSO) or varying doses of WHI-P131 in […] vehicle. To evalulate bleeding and clotting times, treated mice were placed in a tube holder and tail bleeding was performed with a 2 mm cut from the protruding tail tip; the tail was placed vertically into 10 mL normal saline in a 37° C. water bath and bleeding times determined as previously described (Teng, et.al., 1997 Eur J Pharmacol 320(2-3), 161-6).

[5] = test system: collagen-induced platelet aggregation; assay: Collagen-induced platelet aggregation; format: cell-based, human; conditions: FIG. 7D
mice [6] = assay: Systemic toxicity in mice; format: in vivo

JAK3 inhibition (JAK3): does not inhibit
Structure (SMILES): COc1cc2ncnc(Nc3ccccc3)c2cc1OC [WHI-P258]
effect on thrombin-induced aggregation of platelets ([1]; even at 100 μM): did not affect | effect on thrombin induced platelet aggregation (aggregation curves) ([1]; thrombin 0.1 U/mL, FIG. 7B/7C): had no effect

Structure (SMILES): COc1cc2ncnc(Nc3ccc(O)cc3)c2cc1OC [WHI-P131, 4-(4′-Hydroxyphenyl)-amino-6,7-dimethoxyquinazoline]
serotonin in platelet supernatants (platelets): 313 ± 19 nM | toxicity on systemic administration (monkeys): not toxic | plasma concentrations achieved without toxicity [2]: ≥ 10 µM | event-free survival outcome ([3]; mice, 25 mg/kg thromboplastin challenge): 30±15% | drug-related toxic lesions in organs (histopathology) ([3]; pretreated, thromboplastin-challenged mice): No drug-related toxic lesions were detected | average tail bleeding time (mice [4]; 20 mg/kg, N=5): 9.4 ± 0.6 min | average tail bleeding time (mice [4]; 40 mg/kg, N=10): > 10 min | average tail bleeding time (mice [4]; 80 mg/kg, N=10): > 10 min | IC50 ([1]; Platelet, human platelets, pretreatment 30 minutes, thrombin 0.1 U/mL, average, read-out: IC50, inhibition of thrombin-induced platelet aggregation): 1.5 µM | effect on collagen-induced platelet aggregation [5]: does not inhibit | survival and health status without thromboplastin challenge (mice [6]; 20 control mice, 80 mg/kg, 48 hour observation): survived beyond the 48 hour observation period without any evidence of impaired health status or bleeding | toxicity on systemic administration (mice [6]; mice, dose levels 1 mg/kg to 100 mg/kg): not toxic
